In US20060111289A1, “Compositions and methods of using Alpha-fetoprotein growth inhibitory peptides” (Serometrix, LLC,, priority 2004, published 2006):
Marks after values point to notes of the source that are not given here. Where a SMILES comes first, the peptide text is derived from it.

What was measured:
[1] = tested on: LNCaP human prostate tumor cells; assay: Whole-cell voltage clamp of LNCaP cells; format: cell-based; conditions: peptide 10 μM, voltage ramp −100-100 mV (400 ms duration)
Method: LNCaP human prostate tumor cells were cultured on 5×5 mm plastic coverslips and were transferred to a microperfusion chamber on the stage of an inverted microscope. Whole-cell voltage clamp was accomplished with an Axopatch 200B (Axon Instr. Co., Union City, Calif.) using ruptured patches. Borosilicate glass capillaries (1.2 mm OD, 0.68 ID, type EN-I, Garner Glass Co., Claremont, Calif.) were used to fabricate patch pipettes (3-8 MΩ in the bath solution) with a Brown-Flaming horizontal micropipette puller (P-87, Sutter Instruments, San Rafael, Calif.). Patch-pipette tips were heat-polished prior to use. A micromanipulator (Narishige) fixed to the microscope positioned the pipettes. Electrode capacitance and access resistance were compensated prior to measurements. All experiments will be performed at room temperature (20-22° C.). The standard extracellular salt solution for ion currents contained (in mM): 150 NaCl, 6 KCl, 1.5 CaCl2, 1 MgCl2, 10 HEPES, 10 glucose, and pH adjusted to 7.4 with 1 N NaOH. […] Electrophysiological recordings were procured and analyzed using PClamp8 software (Axon Instr. Co, Union City, Calif.) and the WinASCD software (Guy Droogmans, Katholieke Universiteit; Leuven, B E). All results were recorded on computer hard drive or on digital audio tape (DAT). […]

[2] = tested on: immature mouse uterine growth; assay: E2-activated immature mouse uterine growth assay; format: in vivo; parameters: concentration or dose not given beside the values
[3] = tested on: 6WI-1 mammary tumor cells; assay: Mouse ascites mammary tumor assay (6WI-1 isograft); format: in vivo
Method: The growth suppression of the mammary ascites tumor by AFP peptides and its fragments P149a, P149b and P149c, and control peptides were determined in non-estrogen dependent assays which measured tumor cell growth and ascites accumulation of 6WI-1 mammary transplanted NYLAR/nya mice. […] Tumor cell inocula included doses of 0.3, 1.0, and 3.0×10^6 cells which produced host mortality at 12-14 days which was lethal in 100% of the animals. Following peptide dose titration studies, mice inoculated with 6WI-1 mammary cells were injected with a previously-determined optimal dose of 1.0 μg peptide per day or saline for 11 days. On day 12 following inoculation, the total accumulated ascites fluid volume and tumor cells in the peritoneal cavity of each animal were harvested and the cell count determined.
Inoculation of mice with all three cell doses led to an increase in body weight from 25 g (day 0) to approximately […] by day 12, due to the accumulation of tumor cells and ascites fluid in the intraperitoneal cavity. An average cell count in accumulated ascites fluid on day 12 was greater than 10^8 cells/ml with a total ascites volume approximating 20 mls. Tumor cell proliferation in this model has been reported to correlate with the volume of ascites fluid accumulated.
The 6WI-1 mouse mammary tumor studies involving peptide and non-peptide treatment were further compared by histopathological analysis performed on hematoxylin/eosin stained tissue sections.

[4] = tested on: human kidney tumor cell line
[5] = 6WI-1 mouse mammary ascites tumor

Compound | Slope conductance (membrane conduction) [1] | % Inhibition Of Activity: Uterine Growth, Enzymatic Fragments [2] | % Inhibition Of Activity: 6WI-1 Acites Volume [3, 5] | % Inhibition Of Activity: 6WI-1 Body Weight [3, 5] | % Inhibition Of Activity: 6WI-1 Cell Prol [3, 5] | % Inhibition Of Activity: 6WI-1 Peptide Combos ([3]; peptide combination) | % Inhibition Of Activity: Kidney tumor growth [4]
CC[C@H](C)[C@H](NC(=O)[C@@H]1CSSC[C@H](NC(=O)[C@H](C)NC(=O)[C@H](CC(C)C)NC(=O)[C@H](CC(C)C)NC(=O)[C@H](CCCCN)NC(=O)[C@H](CC(=O)O)NC(=O)[C@H](CCC(=O)O)NC(=O)[C@H](CO)NC(=O)[C@@H](N)CC(C)C)C(=O)NCC(=O)N[C@@H](CCC(=O)O)C(=O)NCC(=O)N[C@@H](C)C(=O)N[C@@H](C)C(=O)N[C@@H](CC(=O)O)C(=O)N[C@@H]([C@@H](C)CC)C(=O)N[C@@H]([C@@H](C)CC)C(=O)N[C@@H]([C@@H](C)CC)C(=O)NCC(=O)N[C@@H](Cc2c[nH]cn2)C(=O)N[C@@H](CC(C)C)C(=O)N1)C(=O)N[C@@H](CCCNC(=N)N)C(=O)N[C@@H](Cc1c[nH]cn1)C(=O)N[C@@H](CCC(=O)O)C(=O)N[C@@H](CCSC)C(=O)N[C@H](C(=O)N1CCC[C@H]1C(=O)N[C@H](C(=O)N[C@@H](CC(N)=O)C(=O)N1CCC[C@H]1C(=O)NCC(=O)N[C@H](C(=O)O)C(C)C)C(C)C)[C@@H](C)O [Cyclic GIP] (HELM PEPTIDE1{L.S.E.D.K.L.L.A.C.G.E.G.A.A.D.I.I.I.G.H.L.C.I.R.H.E.M.T.P.V.N.P.G.V}$PEPTIDE1,PEPTIDE1,9:R3-22:R3$$$V2.0; N-terminus and C-terminus assumed) | 0.78 0.15* nS/pF | – | – | – | – | – | –
KDFIHKQGVALQTMKQELINLVKELVKPQIEAVADFSGLL (listed as Homo sapiens) [P192, reference compound] | – | 0% | 0% | 0% | 0% | 0% | 0%
